Series [1] has as its target T1, human amylin receptor (amylin 3(a) receptor: human calcitonin receptor + RAMP-3) (Homo sapiens, UniProt O60896+P30988).
T1 construct: expressed in transfected cells; host or cells: BHK570
T1 sequence (P30988 25-474): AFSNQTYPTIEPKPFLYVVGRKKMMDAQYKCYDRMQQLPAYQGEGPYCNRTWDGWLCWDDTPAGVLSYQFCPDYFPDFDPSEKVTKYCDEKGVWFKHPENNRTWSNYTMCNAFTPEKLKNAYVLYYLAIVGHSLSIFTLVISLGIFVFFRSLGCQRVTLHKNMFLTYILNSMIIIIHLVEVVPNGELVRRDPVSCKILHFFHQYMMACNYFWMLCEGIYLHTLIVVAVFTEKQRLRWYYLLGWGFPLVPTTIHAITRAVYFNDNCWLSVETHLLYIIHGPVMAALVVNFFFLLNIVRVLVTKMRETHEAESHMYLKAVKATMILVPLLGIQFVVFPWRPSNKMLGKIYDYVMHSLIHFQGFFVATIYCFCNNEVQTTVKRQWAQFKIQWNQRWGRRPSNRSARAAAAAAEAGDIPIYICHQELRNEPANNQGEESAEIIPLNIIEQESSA
T1 sequence (O60896 24-148 partner): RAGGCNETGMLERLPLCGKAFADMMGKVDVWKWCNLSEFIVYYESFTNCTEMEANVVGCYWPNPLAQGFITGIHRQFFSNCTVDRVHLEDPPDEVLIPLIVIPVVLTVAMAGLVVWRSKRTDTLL
As to the kind of experiment: Assay (II)a functional CRE-luciferase assay, human amylin receptor. As to conditions: Table 2; BHK amylin 3(a)-receptor/CRE-luc cells. The class given is cell-based.

Series [2] in a line: Assay (IV) determination of solubility. The class given is physicochemical. The method in brief:
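Polypeptide in water (~500 nmol/ml) mixed 1:1 with 100 mM glycylglycine (pH 3.0–5.0) or bistrispropane (pH 6.0–8.0) buffers. Held 18 hours at room temperature, then centrifuged. Polypeptide remaining in solution quantified by HPLC.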

The nature of series [3]: Assay (III) ThT fibrillation assay for physical stability. The format is physicochemical. As to conditions: ThT fibrillation assay. From the text:
ASSAY (III)—ThT Fibrillation Assays for the Assessment of Physical Stability of Protein formulations Low physical stability of a polypeptide may lead to amyloid fibril formation, which is observed as well-ordered, thread-like macromolecular structures in the sample eventually resulting in gel formation. This has traditionally been measured by visual inspection of the sample. However, that kind of measurement is very subjective and depending on the observer. Therefore, the application of a small molecule indicator probe is much more advantageous. Thioflavin T (ThT) is such a probe and has a distinct fluorescence signature when binding to fibrils [Naiki et al. (1989) Anal. Biochem. 177, 244-249; LeVine (1999) Methods. Enzymol. […], 274-284]. The time course for fibril formation can be described by a sigmoidal curve with the following expression [Nielsen et al. (2001) Biochemistry 40, 6036-6046]: [formula] Here, F is the ThT fluorescence at the time t. The constant t0 is the time needed to reach 50% of maximum fluorescence. […] Few of those intermediates nucleate to form a template onto which further intermediates may assembly and the fibrillation proceeds. The lag-time corresponds to the interval in which the critical mass of nucleus is built up and the apparent rate constant is the rate with which the fibril itself is formed. Sample Preparation Samples were prepared freshly before each assay. Each sample composition is described in each example. The pH of the sample was adjusted to the desired value using appropriate amounts of concentrated NaOH and HClO4 or HCl. Thioflavin T was added to the samples from a stock solution in H2O to a final concentration of 1 μM. Sample aliquots of 200 μl were placed in a 96 well microtiter plate (Packard OptiPlate™-96, white polystyrene). Usually, four or eight replica of each sample (corresponding to one test condition) were placed in one column of wells. The plate was sealed with Scotch Pad (Qiagen). Incubation and Fluorescence Measurement Incubation at given temperature, shaking and measurement of the ThT fluorescence emission were done in a Fluoroskan Ascent FL fluorescence platereader or Varioskan platereader (Thermo Labsystems). The temperature was adjusted to 37° C. The orbital shaking was adjusted to 960 rpm with an amplitude of 1 mm in all the presented data. Fluorescence measurement was done using excitation through a 444 nm filter and measurement of emission through a 485 nm filter. Each run was initiated by incubating the plate at the assay temperature for 10 min. The plate was measured every 20 minutes for a desired period of time. Between each measurement, the plate was shaken and heated as described. Data Handling The measurement points were saved in Microsoft Excel format for further processing and curve drawing and fitting was performed using GraphPad Prism. The background emission from ThT in the absence of fibrils was negligible. The data points are typically a mean of four or eight samples and shown with standard deviation error bars. Only data obtained in the same experiment (i.e. samples on the same plate) are presented in the same graph ensuring a relative measure of fibrillation between experiments. The data set may be fitted to Eq. (1). However, since full sigmodial curves in this case are not always achieved during the measurement time, the degree of fibrillation is expressed as ThT fluorescence tabulated as the mean of the samples and shown with the standard deviation at various time points. Measurement of Initial and Final Concentrations The polypeptide concentration in each of the tested formulations were measured both before application in the ThT fibrillation assay (“Initial”) and after completion of the ThT fibrillation (“After ThT assay”). Concentrations were determined by reverse HPLC methods using a pramlintide standard as a reference. Before measurement after completion 150 μl was collected from each of the replica and transferred to an Eppendorf tube. […]

Series [4] deals with T2, human calcitonin receptor (Homo sapiens, UniProt P30988).
T2 construct: expressed in transfected cells; host or cells: BHK570
T2 sequence (P30988 25-474): T1 sequence (P30988 25-474)
As to the kind of experiment: Assay (II)a functional CRE-luciferase assay, human calcitonin receptor. The format is cell-based. Conditions: Table 7; human calcitonin (CTa) receptor.

In brackets after ≈: the same amount, converted by molar mass. Read-outs that look alike come from different tables or passages of the source. Starred links: 1 amine or outer side, 2 acyl side, 3 side chain; linkers in the order of their positions; H or OH if unused. Positions of bridges follow the written chain, without caps; N, C: chain ends. Residues, ends and D or L forms follow the SMILES beside them. *: point of attachment. C20 diacid = O=C(O)CCCCCCCCCCCCCCCCCCC(=O)*; γGlu = O=C(O)[C@H](CCC(=O)[*:2])N[*:1]

As to `CC[C@H](C)[C@H](NC(=O)[C@@H]1CCCN1C(=O)CNC(=O)[C@H](Cc1ccccc1)NC(=O)[C@H](CC(N)=O)NC(=O)[C@H](CC(N)=O)NC(=O)[C@H](CO)NC(=O)[C@H](CO)NC(=O)[C@H](CCCNC(=N)N)NC(=O)[C@H](Cc1c[nH]cn1)NC(=O)[C@H](CC(C)C)NC(=O)[C@H](Cc1ccccc1)NC(=O)[C@H](CCC(=O)O)NC(=O)[C@H](C)NC(=O)[C@H](CC(C)C)NC(=O)[C@H](CCCNC(=N)N)NC(=O)[C@H](CCC(N)=O)NC(=O)[C@@H](NC(=O)[C@H](C)NC(=O)[C@@H]1CSSC[C@H](NC(=O)[C@H](CCC(=O)O)NC(=O)CC[C@H](NC(=O)CCCCCCCCCCCCCCCCCCC(=O)O)C(=O)O)C(=O)N[C@@H](CC(N)=O)C(=O)N[C@@H]([C@@H](C)O)C(=O)N[C@@H](C)C(=O)N[C@@H]([C@@H](C)O)C(=O)N1)[C@@H](C)O)C(=O)N[C@@H](CC(C)C)C(=O)N1CCC[C@H]1C(=O)N1CCC[C@H]1C(=O)N[C@H](C(=O)N[C@@H](CC(N)=O)C(=O)N[C@H](C(=O)NCC(=O)N[C@@H](CO)C(=O)N[C@@H](CC(N)=O)C(=O)N[C@H](C(=O)N[C@@H](Cc1ccc(O)cc1)C(N)=O)[C@@H](C)O)C(C)C)[C@@H](C)O` [Example 5, N-alpha-[(S)-4-Carboxy-4-(19-carboxynonadecanoylamino)butyryl]-[Glu1,Glu14,His17,Arg18]-pramlintide] ({C20 diacid-γGlu}-ECNTATCATQRLAEFLHRSSNNFGPILPPTNVGSNTY-NH2; disulfide 2-7 (inferred); C-terminus assumed), the concentration giving a half-maximal response (EC50) came out at 0.353 nM in series [1] and 1.65 nM in series [4]. In addition, the solubility at 18 h in series [2] (pH 3.0, read-out: Solubility pH 3.0) is reported as >200 µM; in series [2] (pH 4.0, read-out: Solubility pH 4.0) it was >200 µM; in series [2] (pH 5.0, read-out: Solubility pH 5.0), 62 µM (≈ 278 µg/mL); in series [2] (pH 6.0, read-out: Solubility pH 6.0), 164 µM (≈ 734 µg/mL); in series [2] (pH 6.5, read-out: Solubility pH 6.5), 181 µM (≈ 810 µg/mL); in series [2] (pH 7.0, read-out: Solubility pH 7.0), >200 µM. Further, the solubility at 18 h is listed as >200 µM in series [2] (pH 7.5, read-out: Solubility pH 7.5) and >200 µM in series [2] (pH 8.0, read-out: Solubility pH 8.0). Moreover, in series [2] (pH 4.0, 18 hours at room temperature, Table 2), the “Solubility pH 4.0 (μM)” value was >200 μM. In addition, in series [2] (pH 7.0, 18 hours at room temperature, Table 3), the “Solubility pH 7.0 (μM)” value is reported as >200 μM. Moreover, in series [3], the “ThT pH 4.0 lag time (h)” value is given as 4.4 h.

In the case of `CC[C@H](C)[C@H](NC(=O)[C@@H]1CCCN1C(=O)CNC(=O)[C@H](Cc1ccccc1)NC(=O)[C@H](CC(N)=O)NC(=O)[C@H](CC(N)=O)NC(=O)[C@H](CO)NC(=O)[C@H](CO)NC(=O)[C@H](Cc1c[nH]cn1)NC(=O)[C@@H](NC(=O)[C@H](CC(C)C)NC(=O)[C@H](Cc1ccccc1)NC(=O)[C@H](CCC(=O)O)NC(=O)[C@H](C)NC(=O)[C@H](CC(C)C)NC(=O)[C@H](CCCNC(=N)N)NC(=O)[C@H](CCC(N)=O)NC(=O)[C@@H](NC(=O)[C@H](C)NC(=O)[C@@H]1CSSC[C@H](NC(=O)[C@H](Cc2c[nH]cn2)NC(=O)[C@H](Cc2c[nH]cn2)NC(=O)[C@H](Cc2c[nH]cn2)NC(=O)CC[C@H](NC(=O)CCCCCCCCCCCCCCCCCCC(=O)O)C(=O)O)C(=O)N[C@@H](CC(N)=O)C(=O)N[C@@H]([C@@H](C)O)C(=O)N[C@@H](C)C(=O)N[C@@H]([C@@H](C)O)C(=O)N1)[C@@H](C)O)C(C)C)C(=O)N[C@@H](CC(C)C)C(=O)N1CCC[C@H]1C(=O)N1CCC[C@H]1C(=O)N[C@H](C(=O)N[C@@H](CC(N)=O)C(=O)N[C@H](C(=O)NCC(=O)N[C@@H](CO)C(=O)N[C@@H](CC(N)=O)C(=O)N[C@H](C(=O)N[C@@H](Cc1ccc(O)cc1)C(N)=O)[C@@H](C)O)C(C)C)[C@@H](C)O` [Example 20, N-alpha-[(S)-4-Carboxy-4-(19-carboxynonadecanoylamino)butyryl]-His-His-[His1,Glu14]-pramlintide] ({C20 diacid-γGlu}-HHHCNTATCATQRLAEFLVHSSNNFGPILPPTNVGSNTY-NH2; disulfide 4-9 (inferred); C-terminus assumed), the concentration for a half-maximal effect (EC50) in series [1] amounted to 0.151 nM; in series [4], 0.74 nM. In addition, the solubility at 18 h in series [2] (bistrispropane buffer, pH 6, pH 6.0, read-out: Solubility pH 6.0) is 6 µM (≈ 28.2 µg/mL); in series [2] (bistrispropane buffer, pH 7, pH 7.0, read-out: Solubility pH 7.0), 1 µM (≈ 4.7 µg/mL); in series [2] (bistrispropane buffer, pH 7.5, pH 7.5, read-out: Solubility pH 7.5), 13 µM (≈ 61.1 µg/mL); in series [2] (bistrispropane buffer, pH 8, pH 8.0, read-out: Solubility pH 8.0), 73 µM (≈ 343 µg/mL); in series [2] (glycylglycine buffer, pH 3, pH 3.0, read-out: Solubility pH 3.0) it was > 200 µM; in series [2] (glycylglycine buffer, pH 4, pH 4.0, 18 hours at room temperature, Table 2, read-out: Solubility pH 4.0), > 200 µM. The solubility at 18 h was > 200 µM in series [2] (glycylglycine buffer, pH 4, pH 4.0, read-out: Solubility pH 4.0) and > 200 µM in series [2] (glycylglycine buffer, pH 5, pH 5.0, read-out: Solubility pH 5.0). Moreover, the “ThT pH 4.0 lag time (h)” value in series [3] came out at 1.7 h.

Usually EC50 stands for the concentration at which the effect is half-maximal. The term solubility denotes the concentration that dissolves in the medium under given conditions.

(Values after patent publication US8722849B2, “Polypeptides” (Novo Nordisk A/S, priority 2011, dated 2014).)
